Source: patent publication US20030157704A1, “Reagents and methods for identifying and modulating expression of genes regulated by CDK inhibitors” (priority 2001, published 2003)

How the values were obtained:
NK4 promoter = assay: Luciferase assay in LuNK4p21 cell line (NK4 promoter-luciferase, IPTG-inducible p21); assay type: cell-based, human
Procedure: This assay was performed as follows. Cells were plated at a density of 40,000 cells/well in 12 well plates in 1 mL of media containing penicillin/streptomycin, glutamine and 10% fetal calf serum (FCS). After attachment, cells were treated with 50 μM IPTG or left untreated for different periods of time. Luciferase activity was then measured as described in Example 8 above. An additional aliquot was removed from the cell lysate to measure protein concentration using the Bio-Rad protein assay kit (Bradford assay). Luciferase activity for each sample was normalized to protein content and expressed as luciferase activity/μg protein.
Luciferase assays were performed substantially as described in Example 9. Luciferase activity was measured after 16 hrs of incubation with or without 50 μM IPTG, followed by an additional 20 hr treatment in the presence or in the absence of 20 mM sodium salicylate, 1 mM sulindac, or 10 mM aspirin. […] NSAID concentrations were based on the pharmacologic concentrations of these agents in the serum of patients required for their anti-inflammatory properties (Yin et al., 1998, ibid.).

NFκB-dependent promoter = assay: Transient transfection of pNFkB-Luc into HT1080 p21-9 cells, firefly luciferase; assay type: cell-based, human; conditions: different concentrations of IPTG
Description: To determine if IPTG-inducible p21 expression in HT1080 p21-9 cells stimulates the transcriptional activity of NFκB, we have used transient transfection assays to investigate the effect of p21 induction on luciferase expression from the plasmid pNFkB-Luc, commercially available from Stratagene. This plasmid expresses firefly luciferase from an artificial promoter containing five tandemly repeated NFκB consensus sequences. We have also generated by PCR a version of the same promoter that contains only one NFκB consensus sequence using primers identified as SEQ ID Nos. 80 and 83. The sequences of these two promoters are identified as SEQ ID NOs. 78 and 79.
The ability of p21 to induce these promoters was tested by transient transfection assays, as described in Example 8, using different concentrations of IPTG that induce p21 to different levels.
This plasmid is referred to below as IKK. To determine the effect of p300/CBP inhibition on luciferase expression from pNFkB-Luc, the latter plasmid was similarly mixed in another assay with a vector expressing a truncated gene for adenoviral E1A protein with a C-terminal deletion {ΔCR2 (120-140)}. […] The E1AΔCR2 and E1AΔN/ΔCR2 constructs were provided by Dr. V. Ogryzko (NICHHD, NIH). […] The firefly luciferase activity was measured and normalized to Renilla luciferase activity measured (in the absence of IPTG) in each transfected sample.

C8 cells = assay: Apoptosis assay in serum-starved C8 cells; assay type: cell-based, mouse; conditions: addition of IPTG by itself
Procedure: To verify the induction of secreted mitogenic and anti-apoptotic factors by p21, conditioned media from IPTG-treated HT1080 p21-9 cells were tested to investigate whether they would have an effect on cell growth and apoptosis. In these experiments, conditioned media were prepared by plating 10^6 HT1080 p21-9 cells per 15 cm plate in the presence of DMEM/10% FCS. The next day, IPTG was added to a final concentration of 50 μM, and this media was replaced three days later with DMEM supplemented with 0.5% FCS and 50 μM IPTG. Two days later (days 3-5 of IPTG treatment), this conditioned media was collected and stored at 4° C. up to 15 days before use. Control media were prepared by adding IPTG-free DMEM/0.5% FCS to untreated cells grown to the same density as IPTG-treated cells and collecting the media two days thereafter.
The effect of this conditioned media on apoptosis was also determined. […] Apoptosis was analyzed by plating 3×10^5 C8 cells per 6-cm plate, and replacing the media on the following day with fresh media supplemented with 0.4% serum or with conditioned media (no fresh serum added). DNA content analysis and DAPI staining were carried out after 24 hrs and 48 hrs, and relative cell numbers were measured by methylene blue staining (Perry et al., 1992, Mutat. Res. 276: 189-197) after 48 hrs in low-serum media.

HT1080 p16-5 cells = assay: Cell cycle distribution by FACS analysis of DNA content; assay type: cell-based, human; conditions: 50 μM IPTG, 24 hrs
Procedure: This cell population was subcloned, and 20 clonal cell lines were isolated and tested for IPTG-inducible growth inhibition. Cell line showing the strongest growth inhibition was designated HT1080 p16-5. This cell line has been deposited on Jan. 31, 2002 in the American Type Culture Collection (A.T.C.C.), Manassas, Va. and given Accession Number PTA-4020. […] Fractions of cells in different phases of the cell cycle were determined using FACS analysis of DNA content after staining with propidium iodide as described by Jordan et al. (1996, Cancer Res. 56:816-825) using Becton Dickinson FACSort. Cell cycle distribution stabilized after 24 hrs of IPTG treatment, by which time 93% of IPTG-treated cells were arrested in G1. Such G1 arrest is expected from the inhibition of CDK4/6 by p16.

CC(C)S[C@@H]1O[C@H](CO)[C@H](O)[C@H](O)[C@H]1O [IPTG, isopropyl-β-thiogalactoside]
treatment period at which most of the induction is achieved (NK4 promoter; 50 μM IPTG): 17 h
increase of luciferase expression (NK4 promoter; 50 μM IPTG, absence of NSAID): 3-4 fold
IPTG concentration at which most of the induction is achieved (NK4 promoter; 24 hrs of IPTG treatment): 5 µM
increase in luciferase levels in IPTG-treated cells (NK4 promoter; LuNK4p21 cell line): approximately 3 fold
induction of promoters containing five or one NFκB site (NFκB-dependent promoter): dose-dependent induction
apoptosis in C8 cells (C8 cells): no effect
cells arrested in G1 (HT1080 p16-5 cells): 93%
